Laboratory results as given in PubChem BioAssay AID248 (DTP/NCI, 2004).
Values joined by “and” are separate entries in the source; they are usually repeats but may differ in a detail not shown here. Equal entries are not always repeated. Inconclusive results and toxic doses are left out. Rule as the data show it: active = T/C of 150% or more; inactive = T/C below 125%.

Test system: L1210 leukemia ip in BDF1 mice, survival T/C
Test: NCI In Vivo Anticancer Drug Screen. Data for tumor model L1210 Leukemia (intraperitoneal) in B6D2F1 (BDF1) mice
Settings: endpoint: mean survival time, higher = longer survival
Outline: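 Tumor cells were implanted, animals were treated, and survival was followed. The result divides the treated measurement by the vehicle-control measurement.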

[1] = dose: 100.0 mg/kg/injection, schedule: Q01DX009 (ip), vehicle: Klucel (hydroxypropylcellulose) (HPC)
[2] = dose: 100.0 mg/kg/injection, schedule: Q04DX003 (ip), vehicle: Klucel (hydroxypropylcellulose) (HPC)
[3] = dose: 200.0 mg/kg/injection, schedule: Q01DX009 (ip), vehicle: Klucel (hydroxypropylcellulose) (HPC)
[4] = dose: 200.0 mg/kg/injection, schedule: Q04DX003 (ip), vehicle: Klucel (hydroxypropylcellulose) (HPC)
[5] = dose: 400.0 mg/kg/injection, schedule: Q01DX009 (ip), vehicle: Klucel (hydroxypropylcellulose) (HPC)
[6] = dose: 400.0 mg/kg/injection, schedule: Q04DX003 (ip), vehicle: Klucel (hydroxypropylcellulose) (HPC)
[7] = dose: 100.0 mg/kg/injection, schedule: Q04DX003 (ip), vehicle: saline with Tween-80
[8] = dose: 200.0 mg/kg/injection, schedule: Q04DX003 (ip), vehicle: saline with Tween-80
[9] = dose: 100.0 mg/kg/injection, schedule: Q01DX001 (ip), vehicle: saline with Tween-80
[10] = dose: 200.0 mg/kg/injection, schedule: Q01DX001 (ip), vehicle: saline with Tween-80
[11] = dose: 400.0 mg/kg/injection, schedule: Q01DX001 (ip), vehicle: saline with Tween-80
[12] = dose: 100.0 mg/kg/injection, schedule: Q04DX003 (ip), vehicle: saline
[13] = dose: 200.0 mg/kg/injection, schedule: Q04DX003 (ip), vehicle: saline
[14] = dose: 400.0 mg/kg/injection, schedule: Q04DX003 (ip), vehicle: saline
[15] = dose: 100.0 mg/kg/injection, schedule: Q01DX001 (ip), vehicle: saline
[16] = dose: 200.0 mg/kg/injection, schedule: Q01DX001 (ip), vehicle: saline
[17] = dose: 400.0 mg/kg/injection, schedule: Q01DX001 (ip), vehicle: saline

Measured: T/C

CCC#CC(=O)CC
inactive: dose: 7.5 mg/kg/injection, schedule: Q04DX003 (ip), vehicle: saline 94 % of control | dose: 15.0 mg/kg/injection, schedule: Q04DX003 (ip), vehicle: saline 94 % of control | dose: 30.0 mg/kg/injection, schedule: Q04DX003 (ip), vehicle: saline 95 % of control

O=C(CC(O)(c1ccccc1)c1ccccc1)Nc1ccccn1
inactive: dose: 100.0 mg/kg/injection, schedule: Q01DX001 (ip), vehicle: other 89 % of control | dose: 200.0 mg/kg/injection, schedule: Q01DX001 (ip), vehicle: other 89 % of control

COc1ccc(C2(C#N)CCCCC2)cc1
inactive: [1] 109 % of control | [2] 97 % of control | [3] 98 % of control | [4] 100 % of control | [5] 94 % of control | [6] 101 % of control

CCCP(=S)(CCC)N(C)C
inactive: [7] 101 % of control | [8] 104 % of control

CCSCCOC(=S)Nc1ccccc1
inactive: [2] 98 % of control | [4] 97 % of control | [6] 92 % of control

O=C(NC(CO)C(O)c1ccc(N=Nc2cccc3ccccc23)cc1)C(Cl)Cl (configuration not stated)
inactive: [7] 101 % of control | [8] 95 % of control | dose: 400.0 mg/kg/injection, schedule: Q04DX003 (ip), vehicle: saline with Tween-80 93 % of control

CC(O)C12OC1CC1C3CC4OC45CC(O)CCC5(C)C3CCC12C (configuration not stated)
inactive: dose: 100.0 mg/kg/injection, schedule: Q01DX001 (sc), vehicle: steriod suspending solution 106 % of control | dose: 200.0 mg/kg/injection, schedule: Q01DX001 (sc), vehicle: steriod suspending solution 103 % of control | dose: 400.0 mg/kg/injection, schedule: Q01DX001 (sc), vehicle: steriod suspending solution 109 % of control

COc1ccc(C2NC(=O)CCC2N)cc1OC (configuration not stated)
inactive: [9] 99 % of control | [10] 101 % of control | [11] 95 % of control

CCCCCCCCCCCCCC=C(C)C
inactive: [9] 94 % of control | [10] 94 % of control | [11] 87 % of control

CCCCCCCCCCCCc1ccc(CS)cc1
inactive: dose: 100.0 mg/kg/injection, schedule: Q01DX009 (ip), vehicle: saline 98 % of control | [12] 92 % of control | dose: 200.0 mg/kg/injection, schedule: Q01DX009 (ip), vehicle: saline 101 % of control | [13] 91 % of control | dose: 400.0 mg/kg/injection, schedule: Q01DX009 (ip), vehicle: saline 101 % of control | [14] 93 % of control

NC(N)=N/N=C/c1ccccc1 (tested in a mixture with another compound)
inactive: dose: 12.5 mg/kg/injection, schedule: Q04DX003 (ip), vehicle: acetone 93 % of control | dose: 25.0 mg/kg/injection, schedule: Q04DX003 (ip), vehicle: acetone 96 % of control | dose: 50.0 mg/kg/injection, schedule: Q04DX003 (ip), vehicle: acetone 91 % of control

COC(=O)C1OC(CO)C(O)C1O (configuration not stated)
inactive: [15] 105 % of control | [12] 110 % of control | [16] 113 % of control | [13] 107 % of control | [17] 97 % of control | [14] 110 % of control

Cc1cc2c(c3[nH]c4ccccc4c13)C(=O)c1ccccc1C2=O
inactive: [15] 102 % of control | [16] 95 % of control | [17] 102 % of control

CCCc1c(OCC)c(OC)c2c3c(c(-c4c(C)cc5c(CCC)c(OCC)c(OC)c6c5c4OC6OC)c(C)cc13)OC2OC (configuration not stated)
inactive: [1] 94 % of control | [3] 98 % of control | [5] 98 % of control

O=C(O)[C@H]1CCCC[C@H]1C(=O)O
inactive: dose: 50.0 mg/kg/injection, schedule: Q04DX003 (ip), vehicle: Klucel (hydroxypropylcellulose) (HPC) 98 % of control | [2] 95 % of control | [4] 103 % of control and 106 % of control | [6] 100 % of control

O=C(O)Cc1ccccc1Cl
inactive: dose: 100.0 mg/kg/injection, schedule: Q01DX009 (ip), vehicle: gum acacia 100 % of control | dose: 200.0 mg/kg/injection, schedule: Q01DX009 (ip), vehicle: gum acacia 96 % of control

C[C@]1(O)CC[C@H]2[C@@H]3CCC4=CC(=O)CCC4=C3C=C[C@@]21C
inactive: [1] 96 % of control | dose: 100.0 mg/kg/injection, schedule: Q04DX003 (sc), vehicle: Klucel (hydroxypropylcellulose) (HPC) 98 % of control | [3] 96 % of control | dose: 200.0 mg/kg/injection, schedule: Q04DX003 (sc), vehicle: Klucel (hydroxypropylcellulose) (HPC) 95 % of control | [5] 110 % of control | dose: 400.0 mg/kg/injection, schedule: Q04DX003 (sc), vehicle: Klucel (hydroxypropylcellulose) (HPC) 101 % of control

COc1ccc(NC(=O)COc2cccc(Cl)c2)cc1S(=O)(=O)F
inactive: dose: 25.0 mg/kg/injection, schedule: Q04DX003 (ip), vehicle: gum acacia 98 % of control | dose: 50.0 mg/kg/injection, schedule: Q04DX003 (ip), vehicle: gum acacia 95 % of control | dose: 100.0 mg/kg/injection, schedule: Q04DX003 (ip), vehicle: gum acacia 101 % of control | dose: 200.0 mg/kg/injection, schedule: Q04DX003 (ip), vehicle: gum acacia 95 % of control | dose: 400.0 mg/kg/injection, schedule: Q04DX003 (ip), vehicle: gum acacia 92 % of control

S=C1CC2CCCC(C2)N1 (configuration not stated)
inactive: dose: 10.0 mg/kg/injection, schedule: Q01DX001 (ip), vehicle: carboxymethylcellulose (CMC) 93 % of control | dose: 20.0 mg/kg/injection, schedule: Q01DX001 (ip), vehicle: carboxymethylcellulose (CMC) 93 % of control | dose: 80.0 mg/kg/injection, schedule: Q01DX001 (ip), vehicle: carboxymethylcellulose (CMC) 100 % of control

CCCCCCCCCCCCCCCCS(=O)(=O)c1ccc(S(=O)(=O)N/N=c2/sc3ccc(S(=O)(=O)O)cc3n2C)cc1C(=O)O
inactive: dose: 50.0 mg/kg/injection, schedule: Q01DX009 (ip), vehicle: saline with Tween-80 97 % of control | dose: 100.0 mg/kg/injection, schedule: Q01DX009 (ip), vehicle: saline with Tween-80 94 % of control

Cc1cccc(Cl)c1NC(=S)NCc1ccco1
inactive: [1] 98 % of control | [3] 98 % of control | [5] 102 % of control

CSc1cccc(NC(=O)NCCCl)c1
inactive: [2] 104 % of control | [4] 103 % of control | [6] 93 % of control
